Test results as given in US8148391B2 (Cephalon, Inc., priority 2006, dated 2012).
Where two headings read alike, the source gives them in different places.

What was measured:
[1] = target: T1, baculovirus-expressed ALK (Homo sapiens, UniProt Q9UM73); assay: ALK Kinase Assay (ELISA-type, time-resolved fluorescence); format: biochemical
T1 construct: host or cells: baculovirus expression system
Method in brief: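 Wells were coated with phospholipase C-γ at 10 μg/mL in Tris-buffered saline. Adding 30 ng/ml enzyme started the reaction, which ran at 37° C for 15 minutes before Eu-N1 PT66 antibody detection. Percent inhibition versus log10 concentration gave IC50 by variable-slope fit.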

[2] = target: T2, c-Met (cytoplasmic domain) (Homo sapiens, UniProt P08581); assay: c-Met Kinase Assay (same methods as for ALK, with modifications); format: biochemical
T2 construct: 10 ng/mL c-Met (cytoplasmic domain, Invitrogen Corporation #PV3143); purchased Invitrogen Corporation PV3143
T2 sequence (P08581 956-1390 limits assumed): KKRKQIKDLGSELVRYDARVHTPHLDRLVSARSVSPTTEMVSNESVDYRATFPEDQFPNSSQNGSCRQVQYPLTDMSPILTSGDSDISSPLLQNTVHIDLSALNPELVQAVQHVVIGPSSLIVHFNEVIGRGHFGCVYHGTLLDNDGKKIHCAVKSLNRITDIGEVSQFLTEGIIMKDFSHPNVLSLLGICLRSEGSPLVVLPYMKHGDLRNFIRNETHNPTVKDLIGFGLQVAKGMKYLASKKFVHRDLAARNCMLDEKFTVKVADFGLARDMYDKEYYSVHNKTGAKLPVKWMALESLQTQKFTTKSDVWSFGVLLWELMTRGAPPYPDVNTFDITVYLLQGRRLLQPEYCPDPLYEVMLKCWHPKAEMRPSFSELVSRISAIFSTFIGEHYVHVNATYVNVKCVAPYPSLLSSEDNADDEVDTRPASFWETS
Method in brief: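 Steps: coat wells with PLC-γ (10 μg/mL, Tris-buffered saline); add 10 ng/mL c-Met cytoplasmic domain to initiate; incubate 15 min, 37° C; detect phosphoproduct via Eu-N1 PT66 antibody.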

[3] = ALK kinase inhibition, 1 μM ATP (Km level), read-out: ALK Activity
[4] = c-Met kinase inhibition, 1 μM ATP (Km level), read-out: cMet Activity
[5] = 1 μM ATP (Km level), read-out: ALK Activity (ALK Kinase Inhibition, IC50)
[6] = 1 μM ATP (Km level), read-out: cMet Activity (c-Met Kinase Inhibition, IC50)
[7] = ALK kinase inhibition, 1 μM ATP, read-out: ALK Activity
[8] = c-Met kinase inhibition, 1 μM ATP, read-out: cMet Activity
[9] = 1 μM ATP (Km level), 30 ng/ml ALK, 37° C., 15 minutes, read-out: ALK Activity (ALK kinase inhibition, IC50 class)
[10] = 1 μM ATP (Km level), 10 ng/mL c-Met, read-out: cMet Activity (c-Met kinase inhibition, IC50 class)

T1 sequence (Q9UM73 19-1620): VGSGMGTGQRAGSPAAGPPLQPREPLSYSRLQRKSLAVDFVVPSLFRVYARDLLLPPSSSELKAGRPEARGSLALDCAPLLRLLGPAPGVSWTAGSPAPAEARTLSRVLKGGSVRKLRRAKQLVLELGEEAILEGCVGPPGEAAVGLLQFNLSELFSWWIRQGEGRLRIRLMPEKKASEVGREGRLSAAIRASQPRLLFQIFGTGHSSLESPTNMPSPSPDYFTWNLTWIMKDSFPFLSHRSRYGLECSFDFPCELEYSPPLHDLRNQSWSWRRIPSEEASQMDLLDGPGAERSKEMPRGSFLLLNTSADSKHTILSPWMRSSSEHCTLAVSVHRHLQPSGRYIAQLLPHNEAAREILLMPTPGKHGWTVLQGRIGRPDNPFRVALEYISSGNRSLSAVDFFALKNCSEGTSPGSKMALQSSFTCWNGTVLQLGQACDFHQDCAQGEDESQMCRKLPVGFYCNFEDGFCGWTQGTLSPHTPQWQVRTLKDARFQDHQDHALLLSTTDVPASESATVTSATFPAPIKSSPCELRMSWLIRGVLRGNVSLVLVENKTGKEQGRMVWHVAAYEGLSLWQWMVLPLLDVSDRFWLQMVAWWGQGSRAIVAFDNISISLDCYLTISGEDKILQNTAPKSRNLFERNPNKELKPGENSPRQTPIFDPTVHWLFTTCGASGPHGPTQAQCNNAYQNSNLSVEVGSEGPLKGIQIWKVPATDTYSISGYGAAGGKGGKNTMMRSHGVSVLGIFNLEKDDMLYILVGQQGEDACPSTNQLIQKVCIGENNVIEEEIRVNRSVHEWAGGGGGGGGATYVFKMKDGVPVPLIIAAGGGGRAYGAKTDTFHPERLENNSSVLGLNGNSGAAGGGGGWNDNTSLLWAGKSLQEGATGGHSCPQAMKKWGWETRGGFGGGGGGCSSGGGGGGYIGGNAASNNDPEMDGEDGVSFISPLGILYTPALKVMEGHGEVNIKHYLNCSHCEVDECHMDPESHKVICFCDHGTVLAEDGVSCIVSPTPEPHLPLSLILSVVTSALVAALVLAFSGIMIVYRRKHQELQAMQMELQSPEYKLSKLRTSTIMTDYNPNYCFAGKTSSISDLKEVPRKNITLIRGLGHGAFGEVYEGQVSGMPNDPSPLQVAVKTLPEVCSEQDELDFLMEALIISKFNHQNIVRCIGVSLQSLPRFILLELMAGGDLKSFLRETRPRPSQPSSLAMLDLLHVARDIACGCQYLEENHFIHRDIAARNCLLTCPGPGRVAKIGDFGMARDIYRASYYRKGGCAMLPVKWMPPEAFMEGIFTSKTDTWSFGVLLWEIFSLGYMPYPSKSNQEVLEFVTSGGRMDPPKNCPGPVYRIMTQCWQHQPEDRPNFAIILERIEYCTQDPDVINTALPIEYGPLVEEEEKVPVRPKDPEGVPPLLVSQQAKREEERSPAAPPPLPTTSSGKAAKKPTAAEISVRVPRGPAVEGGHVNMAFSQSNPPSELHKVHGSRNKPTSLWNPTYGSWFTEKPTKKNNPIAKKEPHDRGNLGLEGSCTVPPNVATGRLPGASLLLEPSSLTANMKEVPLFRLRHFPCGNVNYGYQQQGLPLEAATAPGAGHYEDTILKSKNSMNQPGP

Compound	IC50 [1, 5] [nM]	IC50 [2, 6] [nM]	IC50 [1, 9] [nM]	IC50 [2, 10] [nM]	other results
CNC(=O)c1ccccc1Nc1nc(Nc2ccc3c(c2)N(C)CCN(CCO)C3)ncc1Cl [Example 485, 2-{5-Chloro-2-[4-(2-hydroxy-ethyl)-1-methyl-2,3,4,5-tetrahydro-1H-benzo[e][1,4]diazepin-8-ylamino]-pyrimidin-4-ylamino}-N-methyl-benzamide]					IC50 [1, 3]: < 100 nM; IC50 [2, 4]: < 100 nM
COc1cc2c(cc1Nc1ncc(Cl)c(Nc3ccc(N4CCN(C)CC4)cc3OC)n1)CCN(CC(F)F)CC2 [Example 764, 5-Chloro-N*2*-[3-(2,2-difluoro-ethyl)-8-methoxy-2,3,4,5-tetrahydro-1H-benzo[d]azepin-7-yl]-N*4*-[2-methoxy-4-(4-methyl-piperazin-1-yl)-phenyl]-pyrimidine-2,4-diamine]	< 100	> 10000			
CNC(=O)c1cc(OC)ccc1Nc1nc(Nc2cc3c(cc2OC)CCN(CC(=O)N(C)C)CC3)ncc1Cl [Example 617, 2-[5-Chloro-2-(3-dimethylcarbamoylmethyl-8-methoxy-2,3,4,5-tetrahydro-1H-benzo[d]azepin-7-ylamino)-pyrimidin-4-ylamino]-5-methoxy-N-methyl-benzamide]	< 100	1000 to 10000			
N-((1R,2R)-2-{5-Chloro-2-[7-(2,2,2-trifluoro-ethylamino)-6,7,8,9-tetrahydro-5H-benzocyclohepten-2-ylamino]-pyrimidin-4-ylamino}-cyclohexyl)-methanesulfonamide [Example 688]	100 to 1000	> 10000			
C#CCNC(=O)c1cccc(F)c1Nc1nc(Nc2ccc3c(c2)OCCCN3C(=O)OC2CCCN(C)C2)ncc1Cl (stereo not shown) [Example 1439, 3-[5-Chloro-4-(2-fluoro-6-prop-2-ynylcarbamoyl-phenylamino)-pyrimidin-2-ylamino]-7,8-dihydro-6H-5-oxa-9-aza-benzocycloheptene-9-carboxylic acid 1-methyl-piperidin-3-yl ester]					IC50 [1, 7]: 100 to 1000 nM; IC50 [2, 8]: 100 to 1000 nM
CCN1C(=O)CCCc2c1ccc(Nc1ncc(Cl)c(N[C@@H]3[C@@H]4C[C@@H]([C@@H](O)[C@H]4O)[C@@H]3C(N)=O)n1)c2OC [Example 1699, (1R,2S,3R,4S,5S,6R)-3-[5-Chloro-2-(1-ethyl-6-methoxy-2-oxo-2,3,4,5-tetrahydro-1H-benzo[b]azepin-7-ylamino)-pyrimidin-4-ylamino]-5,6-dihydroxy-bicyclo[2.2.1]heptane-2-carboxylic acid amide]					IC50 [1, 7]: 100 to 1000 nM; IC50 [2, 8]: > 10000 nM
CCN1C(=O)C(C)(C)CCc2c1ccc(Nc1ncc(Cl)c(Nc3ccc(N4CCOCC4)cc3OC)n1)c2OC [Example 141, 7-[5-Chloro-4-(2-methoxy-4-morpholin-4-yl-phenylamino)-pyrimidin-2-ylamino]-1-ethyl-6-methoxy-3,3-dimethyl-1,3,4,5-tetrahydro-benzo[b]azepin-2-one]					IC50 [1, 3]: 100 to 1000 nM; IC50 [2, 4]: > 10000 nM
CNC(=O)c1ccccc1Nc1nc(Nc2cc3c(cc2OC)CC(=O)N(CCCN2CCOCC2)CC3)ncc1Cl [Example 1126, 2-{5-Chloro-2-[8-methoxy-3-(3-morpholin-4-yl-propyl)-2-oxo-2,3,4,5-tetrahydro-1H-benzo[d]azepin-7-ylamino]-pyrimidin-4-ylamino}-N-methyl-benzamide]			< 100	> 10000	
COc1cc2c(cc1Nc1ncc(Cl)c(Nc3ccccc3S(=O)(=O)N(C)C)n1)CCC(NCC(F)F)CC2 (stereo not shown) [Example 1055, 2-{5-Chloro-2-[7-(2,2-difluoro-ethylamino)-3-methoxy-6,7,8,9-tetrahydro-5H-benzocyclohepten-2-ylamino]-pyrimidin-4-ylamino}-N,N-dimethyl-benzenesulfonamide]			< 100	> 10000	
COc1cc(N2CCN(C)CC2)ccc1Nc1nc(Nc2ccc3c(c2)CCCC(=O)N3C(C)C)ncc1Cl [Example 674, 7-{5-Chloro-4-[2-methoxy-4-(4-methyl-piperazin-1-yl)-phenylamino]-pyrimidin-2-ylamino}-1-isopropyl-1,3,4,5-tetrahydro-benzo[b]azepin-2-one]	< 100	1000 to 10000			
COCCN1CCc2cc(Nc3ncc(Cl)c(N[C@@H]4CCCC[C@H]4N(C)S(C)(=O)=O)n3)c(OC)cc2CC1 [Example 1676, N-((1R,2R)-2-{5-Chloro-2-[8-methoxy-3-(2-methoxy-ethyl)-2,3,4,5-tetrahydro-1H-benzo[d]azepin-7-ylamino]-pyrimidin-4-ylamino}-cyclohexyl)-N-methyl-methanesulfonamide]					IC50 [1, 7]: < 100 nM; IC50 [2, 8]: > 10000 nM
CNc1nc(OC)ccc1Nc1nc(Nc2cc3c(cc2OC)CCN(CC(=O)N(C)C)CC3)ncc1Cl [Example 1208, 2-{7-[5-Chloro-4-(6-methoxy-2-methylamino-pyridin-3-ylamino)-pyrimidin-2-ylamino]-8-methoxy-1,2,4,5-tetrahydro-benzo[d]azepin-3-yl}-N,N-dimethyl-acetamide]			< 100	> 10000	
C#CCOc1cccc(F)c1Nc1nc(Nc2ccc3c(c2)CCOC(=O)N3C)ncc1Cl [Example 1779, 2-[5-Chloro-4-(2-fluoro-6-prop-2-ynyloxy-phenylamino)-pyrimidin-2-ylamino]-5-methyl-8,9-dihydro-5H-7-oxa-5-aza-benzocyclohepten-6-one]					IC50 [1, 7]: 100 to 1000 nM; IC50 [2, 8]: 100 to 1000 nM
COc1cc2c(cc1Nc1ncc(Cl)c(N[C@@H]3[C@H](C(N)=O)[C@H]4C=C[C@@H]3C4)n1)CCOC(=O)N2C [Example 1509, (1R,2R,3S,4S)-3-[5-Chloro-2-(3-methoxy-5-methyl-6-oxo-5,6,8,9-tetrahydro-7-oxa-5-aza-benzocyclohepten-2-ylamino)-pyrimidin-4-ylamino]-bicyclo[2.2.1]hept-5-ene-2-carboxylic acid amide]					IC50 [1, 7]: < 100 nM; IC50 [2, 8]: > 10000 nM
CN1C(=O)CCC(C)(C)c2cc(Nc3ncc(Cl)c(Nc4ccccc4S(C)(=O)=O)n3)ccc21 [Example 1250, 7-[5-Chloro-4-(2-methanesulfonyl-phenylamino)-pyrimidin-2-ylamino]-1,5,5-trimethyl-1,3,4,5-tetrahydro-1-benzazepin-2-one]			< 100	100 to 1000	
CNC(=O)c1ccccc1Nc1nc(Nc2ccc3c(c2)C2CCC3CN(CC#N)C2)ncc1Cl (stereo not shown) [Example 281, 2-[5-Chloro-2-(10-cyanomethyl-10-aza-tricyclo[6.3.2.0*2,7*]trideca-2,4,6-trien-4-ylamino)-pyrimidin-4-ylamino]-N-methyl-benzamide]					IC50 [1, 3]: < 100 nM; IC50 [2, 4]: < 100 nM
COc1cc2c(cc1Nc1ncc(Cl)c(N[C@H]3[C@@H](C(N)=O)[C@@H]4C=C[C@H]3C4)n1)CCN(C(C)C)CC2 [Example 776, (1S,2S,3R,4R)-3-[5-Chloro-2-(3-isopropyl-8-methoxy-2,3,4,5-tetrahydro-1H-benzo[d]azepin-7-ylamino)-pyrimidin-4-ylamino]-bicyclo[2.2.1]hept-5-ene-2-carboxylic acid amide]	< 100	> 10000			
CNC(=O)c1cc(Br)cc(F)c1Nc1nc(Nc2ccc3c(c2)NC(=O)CCC3)ncc1Cl [Example 1414, 5-Bromo-2-[5-chloro-2-(2-oxo-2,3,4,5-tetrahydro-1H-benzo[b]azepin-8-ylamino)-pyrimidin-4-ylamino]-3-fluoro-N-methyl-benzamide]			100 to 1000	< 100	
C#CCNC(=O)c1cccc(F)c1Nc1nc(Nc2ccc3c(c2)OCCCN3C(C)=O)ncc1Cl [Example 1725, 2-[2-(9-Acetyl-6,7,8,9-tetrahydro-5-oxa-9-aza-benzocyclohepten-3-ylamino)-5-chloro-pyrimidin-4-ylamino]-3-fluoro-N-prop-2-ynyl-benzamide]					IC50 [1, 7]: < 100 nM; IC50 [2, 8]: < 100 nM
CNC(=O)C1C2C=CC(C2)C1Nc1nc(Nc2ccc3c(c2)CCC(N2CCOCC2)CC3)ncc1Cl (stereo not drawn) [Example 624, (2-exo-3-exo)-3-[5-Chloro-2-(7-morpholin-4-yl-6,7,8,9-tetrahydro-5H-benzocyclohepten-2-ylamino)-pyrimidin-4-ylamino]-bicyclo[2.2.1]hept-5-ene-2-carboxylic acid methylamide]	< 100	100 to 1000			
CCNC(=O)c1cccc(F)c1Nc1nc(Nc2ccc3c(c2)C(C)(C)CCC(=O)N3)ncc1Cl [Example 1365, 2-[5-Chloro-2-(5,5-dimethyl-2-oxo-2,3,4,5-tetrahydro-1H-benzo[b]azepin-7-ylamino)-pyrimidin-4-ylamino]-N-ethyl-3-fluoro-benzamide]			< 100	< 100	
COc1cc2c(cc1Nc1ncc(Cl)c(Nc3ccccc3OC)n1)CCN(C(=O)CN(C)C)CC2 [Example 1131, 1-{7-[5-Chloro-4-(2-methoxy-phenylamino)-pyrimidin-2-ylamino]-8-methoxy-1,2,4,5-tetrahydro-benzo[d]azepin-3-yl}-2-dimethylamino-ethanone]			< 100	> 10000	
COCC(COC)N1CCc2cc(Nc3ncc(Cl)c(Nc4ccccc4S(=O)(=O)C(C)C)n3)c(OC)cc2CC1 [Example 817, 5-Chloro-N*2*-[8-methoxy-3-(2-methoxy-1-methoxymethyl-ethyl)-2,3,4,5-tetrahydro-1H-benzo[d]azepin-7-yl]-N*4*-[2-(propane-2-sulfonyl)-phenyl]-pyrimidine-2,4-diamine]	< 100	> 10000			
